Experimental data reported in PMC11714206, “Massively Parallel Screening of Toll/Interleukin‐1 Receptor (TIR)‐Derived Peptides Reveals Multiple Toll‐Like Receptors (TLRs)‐Targeting Immunomodulatory Peptides” (Advanced Science, 2024).
Each block holds one sequence with its values, some of them ahead of it.

Biological target: T1, MyD88^TIR (Homo sapiens, UniProt Q99836)
T1 construct: MyD88 (residues 148–296); 6xHis; made in house; host or cells: E. coli BL21 (DE3)
Assay: T‐Surf phage library (P8 and P3) selection against MyD88^TIR, four rounds, NGS read counts
Format: binding
Conditions: for P8_MyD88 Rank (after) / P8_MyD88 Rank (before): P8 library; for Population: P8_MyD88 pool: P8 T-Surf phage library, 4th round of selection against MyD88 TIR, share of NGS reads
Description: T‐Surf libraries were screened against the immobilized TIR domains of two major human TLR adaptor proteins, MAL^TIR and MyD88^TIR, allowing cross‐species selection of TIR‐binding motifs with 190 946 TIR‐derived peptides in a single binding assay (Scheme 1). Enriched phage pools from the fourth round of selection were analyzed using NGS after barcoding the peptide‐coding regions of the phage pools.
Phage display screening was performed by coating two wells of a 96‐well plate (Maxisorp, Thermo Fisher Scientific) with 100 µL of 5 µg mL^−1 TIR domains overnight; then, the coated wells were blocked with 200 µL of blocking buffer (0.2% BSA in PBS) and set aside for 1 h at 4 °C with gentle shaking. Next, 100 µL of the phage library was added to the wells and incubated for 1 h at room temperature (RT; 20 – 22 °C) with gentle shaking. The plate was washed four times with PBS containing 0.5% Tween‐20; the bound phages were eluted by adding 100 µL of 100 mM HCl to each well. The elute was neutralized with 10 µL of 1.0 M Tris‐HCl (pH 11.0). E. coli TG1 cells were grown to the log phase (A600 = ≈0.6), and 1 mL of the culture was incubated with 100 µL of the eluted phages for 30 min at 37 °C, with shaking at 200 rpm. Next, 1 µL of M13KO7 helper phages was added, followed by incubation for 45 min at 37 °C, with shaking. Subsequently, the cells were transferred to 25 mL of 2× yeast extract tryptone/carbenicillin/kanamycin medium and incubated overnight at 37 °C with shaking at 200 rpm. The amplified phages were precipitated with 20% PEG‐8000/2.5 M NaCl to be used for the next round of selection.
The naïve T‐Surf libraries in P8 and P3 and the enriched phage pools after four rounds were barcoded for NGS as previously described.^[ [59] ^] Briefly, 5 µL of the phage pool was used as a template for 20 cycles of a 50 µL PCR reaction using […] each of forward and reverse barcoded primers and PrimeSTAR Max DNA Polymerase. The PCR products were purified using Expin Gel SV (GeneAll). The NGS samples were quantified using qPCR, following the qPCR Quantification Protocol Guide (KAPA Library Quantification kits for Illumina Sequencing Platform), and qualified using the TapeStation High Sensitivity D1000 ScreenTape (Agilent Technologies). The indexed libraries were further sequenced by Macrogen (Seoul, Republic of Korea) using the NovaSeq platform (Illumina) with 100 bp paired‐end reads. The reads were demultiplexed by barcodes and filtered for an average Phred quality score of at least 30, followed by trimming the flanking consensus sequences using Cutadapt (version 2.3). Peptide sequence populations were analyzed according to the read counts.

[1] = selection against MyD88, rank by count after grouping
[2] = selection against MyD88, rank by count before grouping
[3] = selection against MyD88 TIR, rank by count after grouping
[4] = selection against MyD88 TIR, rank by count before grouping
[5] = P8_MyD88: rank by count after grouping
[6] = P8_MyD88: rank by count before grouping
[7] = selection against MyD88, rank after grouping
[8] = selection against MyD88, rank before grouping
[9] = P8_MyD88: rank by NGS read count after grouping
[10] = P8_MyD88: rank by NGS read count before grouping
[11] = 4R selection against MyD88, rank after grouping
[12] = 4R selection against MyD88, rank before grouping

T1 sequence (Q99836 148-296): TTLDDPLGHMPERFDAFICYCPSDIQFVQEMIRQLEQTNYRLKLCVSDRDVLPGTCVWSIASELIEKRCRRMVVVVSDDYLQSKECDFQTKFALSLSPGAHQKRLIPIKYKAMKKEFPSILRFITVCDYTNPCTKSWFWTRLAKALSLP

Sequence: DLQDVGWFLSKLSQHI
Rank (after) [5]: 172 | Rank (before) [6]: 203

Sequence: DLVWDYLLPNLAGPAG
Rank (after) [9]: 967 | Rank (before) [10]: 2386

Sequence: DLVWDYLLPNLEGPAG
Population: 0.00886%

Sequence: DLYDILYLYGRHTIFV
Rank (after) [9]: 881 | Rank (before) [10]: 2584

Sequence: DMQDIEWFYVKLIVSI
P8_MyD88 Rank (after) [1]: 754 | P8_MyD88 Rank (before) [2]: 3064

Sequence: DPHDLEWVYERLVSLF
Rank (after) [9]: 913 | Rank (before) [10]: 2603

Sequence: DPHDLVWFYERLVSLF
P8_MyD88 Rank (after) [3]: 230 | P8_MyD88 Rank (before) [4]: 2631

Sequence: DPHGLEWIYERLVSLF
Rank (after) [9]: 923 | Rank (before) [10]: 2629

Sequence: DPHQHQAFWDRLWEKL
P8_MyD88 Rank (after) [3]: 286 | P8_MyD88 Rank (before) [4]: 560

Sequence: DPLALEWYYERPFSQM
P8_MyD88 Rank (after) [7]: 559 | P8_MyD88 Rank (before) [8]: 2612

Sequence: DPLGQVRLSFRLFRQI
P8_MyD88 Rank (after) [1]: 748 | P8_MyD88 Rank (before) [2]: 2610

Sequence: DPLVMVWLYVRPVSLF
P8_MyD88 Rank (after) [7]: 556 | P8_MyD88 Rank (before) [8]: 2609

Sequence: DPPDLDWCYQRLVNLP
Rank (after) [9]: 1026 | Rank (before) [10]: 2628

Sequence: DPPELDWFYERLFSLF
Rank (after) [9]: 971 | Rank (before) [10]: 2627

Sequence: DPPLLHGLYERLVILF
P8_MyD88 Rank (after) [7]: 485 | P8_MyD88 Rank (before) [8]: 2602

Sequence: DPPVLEWFYESLFSQM
P8_MyD88 Rank (after) [11]: 601 | P8_MyD88 Rank (before) [12]: 2624

Sequence: DPQALDWLYERLVSLF
P8_MyD88 Rank (after) [3]: 203 | P8_MyD88 Rank (before) [4]: 2685

Sequence: DPQDLARSYERLVRLF
P8_MyD88 Rank (after) [11]: 610 | P8_MyD88 Rank (before) [12]: 2690

Sequence: DPQDLAWFSERLVSQF
P8_MyD88 Rank (after) [7]: 551 | P8_MyD88 Rank (before) [8]: 2728

Sequence: DPQDLAWSYERLVSLF
P8_MyD88 Rank (after) [3]: 255 | P8_MyD88 Rank (before) [4]: 2732

Sequence: DPQDLDCFDERLGSRV
P8_MyD88 Rank (after) [11]: 627 | P8_MyD88 Rank (before) [12]: 2697

Sequence: DPQDLDCFYERLVNLF
Rank (after) [5]: 408 | Rank (before) [6]: 2740

Sequence: DPQDLDCYYERLVSLF
Rank (after) [9]: 1004 | Rank (before) [10]: 2741

More lines, now with the values ahead:

P8_MyD88 Rank (after) [1]: 713 | P8_MyD88 Rank (before) [2]: 2590
Sequence: DLLVLEWFYERVFSQM

P8_MyD88 Rank (after) [3]: 206 | P8_MyD88 Rank (before) [4]: 2595
Sequence: DLQDLDWFYERLVSLL

P8_MyD88 Rank (after) [7]: 537 | P8_MyD88 Rank (before) [8]: 2385
Sequence: DLVCDYLLPNLEGAAG

Rank (after) [5]: 143 | Rank (before) [6]: 1072
Sequence: DPHDLDWFYERLVSLL

Rank (after) [9]: 985 | Rank (before) [10]: 2634
Sequence: DPHDLQWLYERLVSLI

P8_MyD88 Rank (after) [7]: 495 | P8_MyD88 Rank (before) [8]: 3035
Sequence: DPHDPQWFYERLVRLI

P8_MyD88 Rank (after) [7]: 562 | P8_MyD88 Rank (before) [8]: 3042
Sequence: DPKALQWFYERLVSLI

Rank (after) [9]: 1027 | Rank (before) [10]: 3043
Sequence: DPKDLQWFYERLVSLF

P8_MyD88 Rank (after) [1]: 680 | P8_MyD88 Rank (before) [2]: 2615
Sequence: DPLHLDWHYERLVSTD

P8_MyD88 Rank (after) [3]: 193 | P8_MyD88 Rank (before) [4]: 246
Sequence: DPMVAEWVLNHLRFEL

P8_MyD88 Rank (after) [3]: 256 | P8_MyD88 Rank (before) [4]: 2682
Sequence: DPQALAWFYERLVSLF

P8_MyD88 Rank (after) [3]: 279 | P8_MyD88 Rank (before) [4]: 2689
Sequence: DPQALDWFYERLVRLF

Rank (after) [5]: 476 | Rank (before) [6]: 2687
Sequence: DPQARDCFYERLVSLF

P8_MyD88 Rank (after) [1]: 712 | P8_MyD88 Rank (before) [2]: 2696
Sequence: DPQDEDWLYERLGGLF

Rank (after) [9]: 934 | Rank (before) [10]: 2964
Sequence: DPQDHYLLYERLVSLF

P8_MyD88 Rank (after) [3]: 251 | P8_MyD88 Rank (before) [4]: 2727
Sequence: DPQDLALFYERLVSLF

P8_MyD88 Rank (after) [7]: 500 | P8_MyD88 Rank (before) [8]: 2997
Sequence: DPQDLAWFYASQSSQM

Population: 0.00617%
Sequence: DPQDLAWFYERLVSLF

P8_MyD88 Rank (after) [11]: 628 | P8_MyD88 Rank (before) [12]: 2733
Sequence: DPQDLAWVYERLVSPV

Rank (after) [5]: 169 | Rank (before) [6]: 1082
Sequence: DPQDLDCFYERLVSLL

Rank (after) [5]: 393 | Rank (before) [6]: 2837
Sequence: DPQDLDGCYERLVSLF
